Test results: patent US11028090B2 (Dong Wha Pharm. Co., Ltd., priority 2017, dated 2021)
Like-named read-outs stand apart in the source and are kept apart here.

Biological target: BRD4 (BD1+BD2) bromodomain (Homo sapiens (Human), UniProt O60885)
Assay: BRD4 binding inhibition (AlphaScreen, GST-BRD4 vs tetraacetylated histone H4 peptide)
Method: A mixture comprising 100 nM GST-BRD4 (BD1+BD2) and 100 nM biotinylated acetyl-histone H4 (Lys5,8,12,16) peptide was prepared in assay buffer (50 mM HEPES pH 7.4; 25 mM NaCl; 0.05% Tween 20; 0.1% bovine serum albumin (BSA); 10 mM dithiothreitol (DTT)). After adding 6 μl of the mixture to the diluent, 6 μl of the pre-mixed AlphaLISA Glutathione Acceptor Beads and AlphaScreen Streptavidin Donor Beads (PerkinElmer, 10 μg/ml in assay buffer, respectively) was added thereto. The samples were incubated in the dark at room temperature for 30 minutes (shaking at 300 rpm). Then, the signals were measured with PerkinElmer Envision HTS Multilabel Reader using an alpha screen protocol of PerkinElmer. Each plate contained the negative control in which biotinylated acetyl-histone H4 peptide and GST-BRD4 (BD1+BD2) were replaced by assay buffer. In the case of using the software GraphPad Prism for calculation, the negative control point was input as a low standard value. The positive control (probe molecule l-BET762 containing protein/peptide mixture) proceeded to pipetting.

[1] = GST-BRD4 (BD1+BD2) / biotinylated acetyl-histone H4 (Lys5,8,12,16) peptide, read-out: IC50, BRD4 binding inhibition
[2] = GST-BRD4 (BD1+BD2) vs biotinylated acetyl-histone H4 peptide, AlphaScreen, read-out: BRD4 IC50

| IC50 [1] | IC50 [2] | SMILES |
| --- | --- | --- |
| ≤ 50 nM | 27 nM | Cc1nnc2c(NCCCCNC(=O)c3cccc(Cl)c3)nc3ccccc3n12 [Example 15, 3-chloro-N-[4-(1-methyl-[1,2,4]triazolo[4,3-a]quinoxaline-4-ylamino)-butyl]-benzamide] |
| ≤ 50 nM | 41 nM | CCOC(=O)CC(=O)NCCCCNc1nc2cc(OC)ccc2n2c(C)nnc12 [Example 305, N-[4-(7-methoxy-1-methyl-[1,2,4]triazolo[4,3-a]quinoxaline-4-ylamino)-butyl]-malonamic acid ethylester] |
| ≤ 50 nM | 24 nM | Cc1noc(C)c1-c1ccc2c(c1)nc(NCCCCNC(=O)[C@H](O)C(C)C)c1nnc(C)n12 [Example 586, N-{4-[7-(3,5-dimethyl-isoxazol-4-yl)-1-methyl-[1,2,4]triazolo[4,3-a]quinoxaline-4-ylamino]-butyl}-2-(R)-hydroxy-3-methyl-butyramide] |
| – | 57 nM | COc1cc2nc(NCCCCNC(=O)Nc3ccccc3)c3nnc(C)n3c2cc1OC [Example 94] |
| ≤ 50 nM | 42 nM | COc1ccc2nc(NCCCCNC(=O)C(C)(C)C)c3nnc(C)n3c2c1 [Example 123, N-[4-(8-methoxy-1-methyl-[1,2,4]triazolo[4,3-a]quinoxaline-4-ylamino)-butyl]-2,2-dimethyl-propionamide] |
| ≤ 50 nM | 26 nM | Cc1nnc2c(NCCCCNC(=O)CC(C)C)nc3cc(C(=O)O)ccc3n12 [Example 201, 1-methyl-4-[4-(3-methyl-butyrylamino)-butylamino]-[1,2,4]triazolo[4,3-a]quinoxaline-7-carboxylic acid] |
| – | 65 nM | Cc1nnc2c(NCCCCNC(=O)C(C)(C)C)nc3ccc(NC(=O)C(C)C)cc3n12 [Example 545] |
| ≤ 10 nM | 5 nM | Cc1noc(C)c1-c1ccc2nc(NCCCCN)c3nnc(C)n3c2c1 [Example 579, N^1-[8-(3,5-dimethyl-isoxazol-4-yl)-1-methyl-[1,2,4]triazolo[4,3-a]quinoxaline-4-yl]-butane-1,4-diamine ditrifluoroacetic acid] |
| – | 55 nM | COc1ccc2nc(NCCCCNC(=O)OC(C)(C)C)c3nnc(C)n3c2c1 [Example 121, [4-(8-methoxy-1-methyl-[1,2,4]triazolo[4,3-a]quinoxaline-4-ylamino)-butyl]-carbamic acid-tert-butylester] |
| – | 52 nM | COCCOc1ccc2c(c1)nc(NCCCCNC(=O)c1ccccn1)c1nnc(C)n12 [Example 416, pyridine-2-carboxylic acid-{4-[7-(2-methoxy-ethoxy)-1-methyl-[1,2,4]triazolo[4,3-a]quinoxaline-4-ylamino]-butyl}-amide] |
| ≤ 50 nM | 35 nM | COc1cc2nc(NCCCCNC(=O)SC(C)C)c3nnc(C)n3c2cc1OC [Example 110, [4-(7,8-dimethoxy-1-methyl-[1,2,4]triazolo[4,3-a]quinoxaline-4-ylamino)-butyl]-thiocarbamic acid-S-isopropylester] |
| – | 67 nM | Cc1nnc2c(NCCCCNC(=O)Nc3cccc(F)c3)nc3ccccc3n12 [Example 24, 1-(3-fluoro-phenyl)-3-[4-(1-methyl-[1,2,4]triazolo[4,3-a]quinoxaline-4-ylamino)-butyl]-urea] |
| ≤ 50 nM | 43 nM | Cc1nnc2c(NCCCCNC(=O)c3ccc(Cl)nc3)nc3ccccc3n12 [Example 20, 6-chloro-N-[4-(1-methyl-[1,2,4]triazolo[4,3-a]quinoxaline-4-ylamino)-butyl]-nicotinamide] |
| ≤ 50 nM | 12 nM | COCCOc1ccc2c(c1)nc(NCCCCNC(=O)[C@@H](NC(=O)CC(C)C)C(C)C)c1nnc(C)n12 [Example 401, (S)-N-{4-[7-(2-methoxy-ethoxy)-1-methyl-[1,2,4]triazolo[4,3-a]quinoxaline-4-ylamino]-butyl}-3-methyl-2-(3-methyl-butyrylamino)-butyramide] |
| – | 70 nM | Cc1nnc2c(NCCCCNC(=O)NC(C)(C)C)nc3ccc(F)cc3n12 [Example 52, 1-tert-butyl-3-[4-(8-fluoro-1-methyl-[1,2,4]triazolo[4,3-a]quinoxaline-4-ylamino)-butyl]-urea] |
| ≤ 50 nM | 34 nM | Cc1nnc2c(NCCCCNC(=O)OC(C)(C)C)nc3cc(C(=O)NCc4ccc(Cl)cc4)ccc3n12 [Example 211, {4-[7-(4-chloro-benzylcarbamoyl)-1-methyl-[1,2,4]triazolo[4,3-a]quinoxaline-4-ylamino]-butyl}-carbamic acid-tert-butylester] |

| IC50 [1] | IC50 [2] | SMILES |
| --- | --- | --- |
| – | 54 nM | Cc1nnc2c(NCCCCNC(=O)CC(C)C)nc3cc(N4CCSCC4)ccc3n12 [Example 523, 3-methyl-N-[4-(1-methyl-7-thiomorpholine-4-yl-[1,2,4]triazolo[4,3-a]quinoxaline-4-ylamino)-butyl]-butyramide] |
| ≤ 50 nM | 31 nM | COc1ccc2c(c1)nc(NCCCCNC(=O)[C@H](C(C)C)N1CCC(CCO)CC1)c1nnc(C)n12 [Example 317, 2-(S)-[4-(2-hydroxy-ethyl)-piperidine-1-yl]-N-[4-(7-methoxy-1-methyl-[1,2,4]triazolo[4,3-a]quinoxaline-4-ylamino)-butyl]-3-methyl-butyramide] |
| – | 91 nM | Cc1nnc2c(NCCCCOC(=O)c3ccccc3)nc3ccccc3n12 [Example 634, benzoic acid-4-(1-methyl-[1,2,4]triazolo[4,3-a]quinoxaline-4-ylamino)-butylester] |
| – | 97 nM | Cc1nnc2c(NCCCCNC(=O)[C@H](O)C(C)C)nc3cc(F)c(F)cc3n12 [Example 38, N-[4-(7,8-difluoro-1-methyl-[1,2,4]triazolo[4,3-a]quinoxaline-4-ylamino)-butyl]-2-(R)-hydroxy-3-methyl-butyramide] |
| ≤ 50 nM | 41 nM | COc1cc2nc(NCCCCNC(=O)N3CCOCC3)c3nnc(C)n3c2cc1OC [Example 92, morpholine-4-carboxylic acid-[4-(7,8-dimethoxy-1-methyl-[1,2,4]triazolo[4,3-a]quinoxaline-4-ylamino)-butyl]-amide] |
| ≤ 50 nM | 27 nM | COc1cc2nc(NCCCCNC(=O)COC(C)=O)c3nnc(C)n3c2cc1OC [Example 87] |
| – | 98 nM | Cc1nnc2c(NCCCCNC(=O)C(C)C)nc3cc(Cl)c(Cl)cc3n12 [Example 29, N-[4-(7,8-dichloro-1-methyl-[,2,4]triazolo[4,3-a]quinoxaline-4-ylamino)-butyl]-isobutyramide] |
| ≤ 50 nM | 22 nM | Cc1nnc2c(NCCCCNC(=O)[C@H](O)C(C)C)nc3cc4c(cc3n12)OCCO4 [Example 182, 2-(R)-hydroxy-3-methyl-N-[4-(1-methyl-8,9-dihydro-7,10-dioxa-2,3,5,11b-tetraaza-cyclopenta[a]anthracene-4-ylamino)-butyl]-butyramide] |
| – | 77 nM | COc1cc2c(cc1C)nc(NCCCCNC(=O)c1ccccc1F)c1nnc(C)n12 [Example 155, 2-fluoro-N-[4-(8-methoxy-1,7-dimethyl-[1,2,4]triazolo[4,3-a]quinoxaline-4-ylamino)-butyl]-benzamide] |
| – | 60 nM | COCCOc1ccc2c(c1)nc(NCCCCNC(=O)c1cccnc1)c1nnc(C)n12 [Example 417, N-{4-[7-(2-methoxy-ethoxy)-1-methyl-[1,2,4]triazolo[4,3-a]quinoxaline-4-ylamino]-butyl}-nicotinamide] |
| ≤ 50 nM | – | Cc1ccc2nc(NCCCCNC(=O)c3ccccc3)c3nnc(C)n3c2c1 [Example 45, N-[4-(1,8-dimethyl-[1,2,4]triazolo[4,3-a]quinoxaline-4-ylamino)-butyl]-benzamide] |
| – | 96 nM | COc1cc2c(cc1C)nc(NCCCCNC(=O)[C@H](O)C(C)C)c1nnc(C)n12 [Example 152, 2-(R)-hydroxy-N-[4-(8-methoxy-1,7-dimethyl-[1,2,4]triazolo[4,3-a]quinoxaline-4-ylamino)-butyl]-3-methyl-butyramide] |
| ≤ 50 nM | 58 nM | COc1c(C)ccc2c1nc(NCCCCNC(=O)[C@H](O)C(C)C)c1nnc(C)n12 [Example 136, 2-(R)-hydroxy-N-[4-(6-methoxy-1,7-dimethyl-[1,2,4]triazolo[4,3-a]quinoxaline-4-ylamino)-butyl]-3-methyl-butyramide] |
| ≤ 50 nM | 44 nM | COc1cc2nc(NCCCCNC(=O)OCC(C)C)c3nnc(C)n3c2cc1C(F)(F)F [Example 474, [4-(7-methoxy-1-methyl-8-trifluoromethyl-[1,2,4]triazolo[4,3-a]quinoxaline-4-ylamino)-butyl]-carbamic acid isobutylester] |
| – | 51 nM | COc1cc2nc(NCCCCNC(=O)c3ccccc3Cl)c3nnc(C)n3c2cc1C(F)(F)F [Example 481, 2-chloro-N-[4-(7-methoxy-1-methyl-8-trifluoromethyl-[1,2,4]triazolo[4,3-a]quinoxaline-4-ylamino)-butyl]-benzamide] |

| SMILES | IC50 [1] | IC50 [2] |
| --- | --- | --- |
| COC(=O)c1ccc2nc(NCCCCNC(=O)OC(C)(C)C)c3nnc(C)n3c2c1 [Example 530, 4-(4-tert-butoxycarbonylamino-butylamino)-1-methyl-[1,2,4]triazolo[4,3-a]quinoxaline-8-carboxylic acid methylester] | ≤ 50 nM | 34 nM |
| Cc1nnc2c(NCCCCNC(=O)OC(C)(C)C)nc3cc(C(=O)O)ccc3n12 [Example 200, 4-[(4-tert-butoxycarbamoylamino)-butylamino]-1-methyl-[1,2,4]triazolo[4,3-a]quinoxaline-7-carboxylic acid] | – | 71 nM |
